# Results: patent US20040043959A1, “Combination therapies for treating methylthioadenosine phosphorylase deficient cells” (priority 2002, published 2004)
# Read-outs that look alike come from different tables or passages of the source.
# Columns and labels:
# [1] = mouse, in vivo
# Protocol: A series of experiments were undertaken in order to evaluate the in vivo effect of schedule of administration of MTA on reduction of […] induced by […]. BALB/c/nu/nu female mice were housed 3 per cage with free access to food and water. Mice were fed a folate-deficient chow (#Td84052, Harlan-Teklad, Madison, Wis.) for at least 14 days prior to initiation of drug treatment and continuing throughout the study. Animal weight loss, which is a measure of toxicity, was recorded at least daily for 18 days at the same time of day. Table 11 presents a summary of data from multiple experiments, i.e., at least two experiments for each schedule. […] To produce this effect, MTA must be administered at the beginning of treatment with Compound 7 and continuing until after treatment with Compound 7. Further, since the activity of Compound 7 continues for at least a few days after the last dose was administered, to produce an effect MTA must be administered during this period of activity, i.e. for at least 2 days after the last dose of the cytotoxic was administered.
# [2] = tested on: human pancreatic BxPC-3 tumor; test: antitumor activity in MTAP-deficient xenograft model; type: in vivo, mice
# Excerpt: (§1) To evaluate the in vivo effect of combination therapy on known human MTAP-deficient tumors, an MTAP-deficient cell line was introduced to mice to produce xenograft MTAP-deficient tumors. 108 BALB/c/nu/nu female mice bearing subcutaneous tumor fragments produced from the MTAP-deficent BxPC-3 cell line were housed 3 per cage with free access to food and water. Mice were fed a folate-deficient chow (#Td84052, Harlan Teklad, Madison, Wis.) beginning 14 days prior to initiation of drug treatment and continuing throughout the study. After randomization by tumor volume into 8 treatment groups and assigning the remaining 12 mice to group 7, beginning on the twenty-first day after tumor implant mice were dosed with Compound 7 daily for 4 days, and with MTA or vehicle twice-a-day for 8 days, in the amounts indicated in Table 7 below. The vehicle for both compounds was 0.75% sodium bicarbonate in water (7.5% NaHCO3 solution (Cellgro #25-035-4, Mediatech, Herndon, Va.) diluted 1:10 in sterile water for injection (Butler, Columbus, Ohio)) under pH adjusted to 7.0-7.4. Solutions were sterilized by filtration through 0.22 micron polycarboniate filters (Cameo 25GAS, Micron Separations Inc., Westboro, Mass.). Tumor volumes and animal weight loss, which is an indicator of toxicity, were recorded daily for 14 days at the same time of day, then on a Monday, Wednesday, Friday schedule for the remainder of the study.
# [3] = animal weight loss (toxicity) in BxPC-3 xenograft study; type: in vivo; details: 40 mg/kg Compound 7 plus 50 mg/kg MTA versus 2.5 mg/kg Compound 7 alone, folate-deficient diet
# Excerpt: as §1, with “Solutions were sterilized by filtration through 0.22 micron polycarboniate filters (Cameo 25GAS, Micron Separations Inc., Westboro, Mass.).” left out
# [4] = biological target: T1, human membrane folate-binding protein (mFBP) (Homo sapiens, UniProt P15328); details: relative to lometrexol; cited from earlier work
# T1 construct: mFBP prepared from cultured KB cells (human nasopharyngeal carcinoma cells); endogenous in cells
# T1 sequence (P15328 25-234): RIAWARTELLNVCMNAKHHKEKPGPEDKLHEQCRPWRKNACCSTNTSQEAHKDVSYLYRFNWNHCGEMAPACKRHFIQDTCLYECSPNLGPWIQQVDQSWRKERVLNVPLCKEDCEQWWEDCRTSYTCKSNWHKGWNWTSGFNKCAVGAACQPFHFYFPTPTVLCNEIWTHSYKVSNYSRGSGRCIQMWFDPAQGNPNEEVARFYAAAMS
# [5] = biological target: T1, human membrane folate-binding protein (mFBP); test: competitive binding assay against 3H-folic acid with mFBP prepared from KB cells
# Excerpt: The dissociation constant (Kd) of the preferred inhibitors of the present invention for human membrane folate-binding protein (mFBP) can be determined in a competitive binding assay using mFBP prepared from cultured KB cells (human nasopharyngeal carcinoma cells) as disclosed in U.S. Pat. No. 5,646,141, the disclosures of which is hereby incorporated by reference in its entirety.
# Human membrane folate binding protein can be obtained from KB cells by methods well known in the art. KB cells are washed, sonicated for cell lysis and centrifuged to form pelleted cells. The pellet can then be stripped of endogenous bound folate by resuspension in acidic buffer (KH2PO4—KOH and 2-mercaptoethanol) and centrifuged again. The pellet is then resuspended and the protein content quantitated using the Bradford method with bovine serum albumin (BSA) as standard.
# Disassociation constants are determined by allowing, the test inhibitor to compete against ^3H-folic acid for binding to mFBP. Reaction mixtures are designed to generally contain mFBP, ^3H-folic acid, and various concentrations of the subject test inhibitor in acidic buffer (KH2PO4—KOH and 2-mercaptoethanol). The competition reaction is typically conducted at 25°. Because of the slow nature of release of bound ^3H-folic acid, the test inhibitor may be prebound prior to addition of bound ^3H-folic acid, after which the reaction should be allowed to equilibriate. The full reaction mixtures then should be drawn through nitrocellulose filters to isolate the cell membranes with bound ^3H-folic acid. The trapped mFBP are then washed and measured by scintillation counting. The data can then be nonlinearly fitted as described above in determining Ki. The mFBP Kd for ^3H-folic acid, used for calculating the competitor Kd, can be obtained by directly titrating mFBP with ^3H-folate. The mFBP Kd can then be used to calculate the competitor Kd by nonlinear fitting of the data to an equation for tight-binding Kc. Table 1 below provides the Kd values of several GARFT inhibitors using the assay described above.
# GARFT = biological target: T2, GARFT (Homo sapiens, UniProt P22102); details: read-out: Ki (GARFT inhibitor); cited from earlier work
# T2 construct: The GART domain (residues 808-1010) of the trifunctional human GARS-AIRS-GART enzyme was purified; made in house
# T2 sequence (P22102 808-1010): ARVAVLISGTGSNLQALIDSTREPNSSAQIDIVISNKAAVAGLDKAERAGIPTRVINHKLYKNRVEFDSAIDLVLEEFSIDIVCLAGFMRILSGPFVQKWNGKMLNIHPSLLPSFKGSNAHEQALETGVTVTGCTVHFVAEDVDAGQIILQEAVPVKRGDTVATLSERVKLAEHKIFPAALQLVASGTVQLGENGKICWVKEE
# [6] = tested on: MTAP-competent SK-MES-1 non-small cell lung cancer cells; test: MTT growth inhibition by Compound 7 with and without MTA; type: cell-based, human
# Protocol: All cell lines were purchased from the American Type Culture Collection. All cultures were maintained at 37° C., in 5% air-CO2 atmosphere in a humidified incubator.
# Cells were plated in columns 2-12 of a 96-well microtiter plate, with column 2 designated as the vehicle control. The same volume of medium was added to column 1. Column 1 was designated as the media control. After a 4-hour incubation, the cells were treated with Compound 7, with or without a non-growth inhibitory concentration of MTA, in quadruplicate wells. […] MTT (4,5-dimethylthiazol-2-yl)-2,5-diphenyl tetrazolium bromide; Sigma, St. Louis, Mo.) was added to a final concentration of 0.25-1 mg/ml in each well, and the plates were incubated for 4 hours. The liquid was removed from each well. DMSO was added to each well, then the plates were vortexed slowly in the dark for 7-20 minutes. The formazin product was quantified spectrophotometrically at […] on a Molecular Devices Vmax™ kinetic microplate reader.
# [7] = tested on: BxPC-3 cells transfected with the MTAP gene; test: colony formation cytotoxicity, 6 h drug exposure; type: cell-based, human; details: 1.5 μM Compound 7 with 50 μM anti-toxicity agent, FIG. 5a
# Protocol: Cytoxicity data was collected using BxPC-3, PANC-1 and HT-1080 cells which were cultured in Iscove's medium supplemented with 10% dialyzed, horse serum, 5% nonessential amino acids and 5% sodium pyruvate.
# (§2) Mid-log-phase cells were trypsinized and placed in 60 mm tissue culture dishes at 200 or 250 cells per dish. Cells from each cell line were left to attach for 4 hours and then were treated with Compound 7, with or without MTA or dcSAMe, in 5-fold serial dilutions for 6 or 24 hours. For data shown in FIGS. 5a and 5b, cells were exposed to drug(s) for 6 hours only. For data shown in FIG. 6, cells were exposed to Compound 7 for 24 hours and to MTA continuously for the duration of colony growth (i.e. 24 hours and thereafter). Cells were next washed with PBS, and then fixed and stained with 1% w/v crystal violet in 25% methanol (Sigma, St. Louis, Mo.). After washing the dishes 2-3 times. with deionized water, the colonies were counted. Triplicate dishes were used for each drug concentration.
# [8] = tested on: MTAP-competent NCI-H460 cells; test: colony formation cytotoxicity with varying duration of MTA exposure; type: cell-based, human; details: MTA for at least 48 hours, at least 1 day after Compound 7 exposure, FIG. 8
# Protocol: as §2
# Cytoxicity data for combination therapy of Compound 7 with MTA was collected using MTAP-competent […] cells. NCI-H460 cells were cultured, incubated and stained as described in Example 3(B) above, but with an incubation time of up to eight days.
SMILES,"Increase in Compound 7 maximum tolerated dose (-fold dose) ([1]; female, BALB/c/nu/nu)",Increase in Compound 7 maximum tolerated dose (-fold dose) [1],Time to 1000 mm^3 (days) Mean ([2]; 2.5 mg/kg Compound 7 qd x4) [days],Time to 1000 mm^3 (days) Median ([2]; 2.5 mg/kg Compound 7 qd x4) [days],Time to 1000 mm^3 (days) Mean ([2]; 5 mg/kg Compound 7 qd x4) [days],Time to 1000 mm^3 (days) Median ([2]; 5 mg/kg Compound 7 qd x4) [days],Time to 1000 mm^3 (days) Mean ([2]; 10 mg/kg Compound 7 qd x4) [days],Time to 1000 mm^3 (days) Median ([2]; 10 mg/kg Compound 7 qd x4) [days],Time to 1000 mm^3 (days) Median ([2]; 20 mg/kg Compound 7 qd x4) [days],"increase of therapeutic window ([2]; MTA twice a day 8 days, Compound 7 daily 4 days, nu/nu tumor-bearing mice, folate-deficient diet) [fold]",reduction in toxicity (weight loss) [3] [fold],binds less tightly than lometrexol to mFBP [4],Kd [5] [nM],Ki (GARFT) [µM],"cell growth inhibition as a single agent ([6]; SK-MES-1, 168 h, FIG. 3)","cell number at the highest concentration of Compound 7 tested ([6]; with 10 μM MTA, up to approximately 60 times the IC50 of Compound 7)",cell survival [7] [%],Time to 1000 mm^3 (days) Mean ([2]; 50 mg/kg MTA bid x8 alone) [days],Time to 1000 mm^3 (days) Median ([2]; 50 mg/kg MTA bid x8 alone) [days],protection from Compound 7-induced cytotoxicity [8]
"Cc1cc(C(=O)N[C@@H](CCC(=O)O)C(=O)O)sc1CC[C@@H]1CNc2nc(N)[nH]c(=O)c2C1 (single isomer, unassigned) [Compound 7]",4 -fold dose,None,32.3,32.4,32.1,32.4,34.0,33.4,36.4,16,16,about 1400 fold,290,0.0005,fully inhibited cell growth,about 75 % of control,–,–,–,–
"CSC[C@H]1O[C@@H](n2cnc3c(N)ncnc32)[C@H](O)[C@@H]1O [MTA, methylthioadenosine]",–,–,–,–,–,–,–,–,–,–,–,–,–,–,–,–,100,22.6,21.4,fully protected cells from Compound 7-induced cytotoxicity
